Experimental data from patent US10077261B2, “Imidazolin-5-one derivative useful as FASN inhibitors for the treatment of cancer” (Janssen Pharmaceutica NV, priority 2012, dated 2018).

Target: T1, hFASN enzyme (full length) (Homo sapiens, UniProt P49327)
T1 construct: 10 μL hFASN enzyme (full length, 300 ng, purified in house); made in house
Test: Fatty Acid Synthase (FASN) inhibition scintillation proximity assay
Type: biochemical
Conditions: for inhibition at 10 µM: read-out: Human FASN % inhibition @ 10 μM, 10 μM test compound; for IC50: read-out: Human FASN pIC50 (converted)
Description: In this assay, inhibition of FASN activity is measured using ^3H-acetyl-CoA and malonyl-CoA as substrates. ^3H-Acetyl CoA is converted to ^3H-palmitate through a series of reactions by the FASN protein, which contains 7 functional domains and carries out 7 enzymatic reactions to ultimately produce ^3H-palmitate. The assay principle is based upon the fact that ^3H-acetyl-CoA is hydrophilic and the end product, ^3H-palmitate is hydrophobic.
10 μL assay buffer (100 mM KH2PO4 pH 7.5, 1 mM DTT) (20 μL in blanks) was added to a 384-well white optiplate plate (Perkin Elmer). 0.9 μL test compound (at concentrations of 30 μM, 10 μM, 3 μM, 1 μM, 0.30 μM, 0.10 μM, 0.03 μM and 0.01 μM)/DMSO and 10 μL hFASN enzyme (full length, 300 ng, purified in house) or 10 μL assay buffer was added to the wells. […] The reaction was stopped by adding 20 μL Streptavidin coupled imaging beads (25 mg/ml). After incubation for 30 minutes at room temperature in the dark, the 384 well plate was centrifuged at 1500 rpm for 3 minutes and was measured after at least 24 hrs by the LEADseeker™, measuring emission using a 610±20 nm pass filter.
where mLC and mHC were the means of the low control wells and high control wells on the plate, after manual exclusion of outliers. A plot of Controlmin versus test compound concentration was fitted to a 4-parameter logistic curve using a non-linear least squares regression method.

T1 sequence (P49327 whole entry): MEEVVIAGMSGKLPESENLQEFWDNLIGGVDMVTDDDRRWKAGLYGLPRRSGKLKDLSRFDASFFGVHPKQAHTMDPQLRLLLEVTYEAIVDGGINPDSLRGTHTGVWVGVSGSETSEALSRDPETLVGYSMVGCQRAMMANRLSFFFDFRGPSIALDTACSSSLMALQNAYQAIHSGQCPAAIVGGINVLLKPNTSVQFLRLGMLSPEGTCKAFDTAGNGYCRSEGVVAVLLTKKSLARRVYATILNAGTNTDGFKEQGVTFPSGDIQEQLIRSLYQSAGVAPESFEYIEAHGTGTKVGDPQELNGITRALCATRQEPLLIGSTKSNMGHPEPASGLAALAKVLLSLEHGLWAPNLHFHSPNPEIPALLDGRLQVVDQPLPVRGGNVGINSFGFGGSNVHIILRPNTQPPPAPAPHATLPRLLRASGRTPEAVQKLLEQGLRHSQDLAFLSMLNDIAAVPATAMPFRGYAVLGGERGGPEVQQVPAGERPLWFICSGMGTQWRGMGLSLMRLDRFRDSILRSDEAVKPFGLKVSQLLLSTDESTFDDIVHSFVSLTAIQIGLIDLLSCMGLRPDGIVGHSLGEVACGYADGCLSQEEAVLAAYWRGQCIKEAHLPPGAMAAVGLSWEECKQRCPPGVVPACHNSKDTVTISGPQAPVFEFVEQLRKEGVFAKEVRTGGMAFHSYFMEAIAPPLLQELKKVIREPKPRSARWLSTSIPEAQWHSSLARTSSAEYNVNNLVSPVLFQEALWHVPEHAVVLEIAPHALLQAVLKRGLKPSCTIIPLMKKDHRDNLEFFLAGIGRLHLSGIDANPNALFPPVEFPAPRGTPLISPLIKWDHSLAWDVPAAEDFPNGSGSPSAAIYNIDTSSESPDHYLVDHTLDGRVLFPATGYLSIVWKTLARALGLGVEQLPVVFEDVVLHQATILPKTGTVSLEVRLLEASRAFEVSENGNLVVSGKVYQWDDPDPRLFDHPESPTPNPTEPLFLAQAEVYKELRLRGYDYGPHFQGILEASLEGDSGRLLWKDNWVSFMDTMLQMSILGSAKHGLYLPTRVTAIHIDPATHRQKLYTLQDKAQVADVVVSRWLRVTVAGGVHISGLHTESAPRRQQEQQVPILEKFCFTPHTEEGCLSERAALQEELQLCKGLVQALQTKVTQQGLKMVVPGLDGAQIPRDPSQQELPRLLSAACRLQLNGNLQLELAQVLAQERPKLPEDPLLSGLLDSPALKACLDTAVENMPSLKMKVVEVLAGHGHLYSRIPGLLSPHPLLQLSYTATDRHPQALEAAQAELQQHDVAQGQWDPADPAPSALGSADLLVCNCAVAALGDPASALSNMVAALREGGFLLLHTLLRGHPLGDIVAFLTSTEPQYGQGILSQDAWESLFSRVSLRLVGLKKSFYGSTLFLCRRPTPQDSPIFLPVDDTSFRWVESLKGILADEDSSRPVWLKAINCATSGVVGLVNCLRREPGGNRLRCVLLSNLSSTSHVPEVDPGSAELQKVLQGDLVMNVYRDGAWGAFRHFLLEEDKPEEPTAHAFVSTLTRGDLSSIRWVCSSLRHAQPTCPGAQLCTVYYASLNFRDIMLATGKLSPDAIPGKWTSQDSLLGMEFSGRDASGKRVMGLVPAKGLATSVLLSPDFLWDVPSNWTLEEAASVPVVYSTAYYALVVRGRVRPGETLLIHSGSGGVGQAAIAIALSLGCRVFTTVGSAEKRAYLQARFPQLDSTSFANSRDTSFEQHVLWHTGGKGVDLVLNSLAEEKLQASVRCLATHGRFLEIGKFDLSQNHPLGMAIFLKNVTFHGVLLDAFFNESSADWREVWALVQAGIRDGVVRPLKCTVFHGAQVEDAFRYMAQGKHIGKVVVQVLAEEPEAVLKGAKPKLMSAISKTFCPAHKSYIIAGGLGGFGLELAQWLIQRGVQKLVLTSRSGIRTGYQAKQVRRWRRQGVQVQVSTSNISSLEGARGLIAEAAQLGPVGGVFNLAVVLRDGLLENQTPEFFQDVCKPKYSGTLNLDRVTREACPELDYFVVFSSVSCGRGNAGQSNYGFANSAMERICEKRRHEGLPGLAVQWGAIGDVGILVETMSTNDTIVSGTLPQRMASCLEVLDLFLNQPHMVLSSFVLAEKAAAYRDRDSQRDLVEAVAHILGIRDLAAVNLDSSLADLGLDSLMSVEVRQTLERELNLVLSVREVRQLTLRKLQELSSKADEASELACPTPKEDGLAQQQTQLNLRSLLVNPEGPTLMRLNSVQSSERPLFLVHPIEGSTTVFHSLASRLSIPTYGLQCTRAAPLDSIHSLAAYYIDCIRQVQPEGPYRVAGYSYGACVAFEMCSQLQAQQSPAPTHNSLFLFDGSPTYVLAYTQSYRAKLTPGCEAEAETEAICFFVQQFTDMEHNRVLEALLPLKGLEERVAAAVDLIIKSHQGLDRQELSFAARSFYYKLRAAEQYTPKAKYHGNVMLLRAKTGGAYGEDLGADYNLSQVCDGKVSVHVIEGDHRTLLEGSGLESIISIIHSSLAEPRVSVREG

Structure (SMILES)	inhibition at 10 µM [%]	IC50 [µM]
CC(C)N1CCC2(CC1)N=C(c1ccc(-c3ccc4occc4c3)cc1)N(CC1CN(C(=O)C3CC3)C1)C2=O [compound 166, 2-[4-(1-Benzofuran-5-yl)phenyl]-3-{[1-(cyclopropylcarbonyl)azetidin-3-yl]methyl}-8-(1-methylethyl)-1,3,8-triazaspiro[4.5]dec-1-en-4-one]	71.6	3.39
O=C(C1CC1)N1CCC[C@@H](CN2C(=O)C3(CC3)N=C2c2ccc(-c3ccc4[nH]ncc4c3)cc2)C1 [compound 389, 6-{[(3R)-1-(Cyclopropylcarbonyl)piperidin-3-yl]methyl}-5-[4-(1H-indazol-5-yl)phenyl]-4,6-diazaspiro[2.4]hept-4-en-7-one]	56	7.24
Cc1cc2cc(-c3ccc(C4=NC5(CCNCC5)C(=O)N4C[C@@H]4CCN(C(=O)C5CC5)C4)cc3)ccc2o1 [compound 155]	96.5	0.776
Cn1ncc2cc(-c3ccc(C4=NC5(CCOCC5)C(=O)N4C[C@@H]4CCN(C(=O)C(F)(F)F)C4)cc3)ccc21 [compound 890, (R)-2-(4-(1-methyl-1H-indazol-5-yl)phenyl)-3-((1-(2,2,2-trifluoroacetyl)pyrrolidin-3-yl)methyl)-8-oxa-1,3-diazaspiro[4.5]dec-1-en-4-one]	37	> 10
O=C(C1CC1)N1CCC(CN2C(=O)C3(CC3)N=C2c2ccc(-c3ccc(Cl)cc3)cc2)CC1 [compound 109, 5-(4′-Chlorobiphenyl-4-yl)-6-{[1-(cyclopropylcarbonyl)piperidin-4-yl]methyl}-4,6-diazaspiro[2.4]hept-4-en-7-one]	62.1	5.13
Cn1ncc2cc(-c3ccc(C4=NC5(CCOC5)C(=O)N4CC4CN(C(=O)N5CCCC5)C4)cc3)ccc21 (centres unmarked) [compound 945, 2-(4-(1-methyl-1H-indazol-5-yl)phenyl)-3-((1-(pyrrolidine-1-carbonyl)azetidin-3-yl)methyl)-7-oxa-1,3-diazaspiro[4.4]non-1-en-4-one]	38	> 10
COC(=O)N1CC2(C1)N=C(c1ccc(-c3ccc4c(cnn4C)c3)cc1)N(C[C@@H]1CCN(C(=O)C(F)(F)F)C1)C2=O [compound 907, (R)-methyl 6-(4-(1-methyl-1H-indazol-5-yl)phenyl)-8-oxo-7-((1-(2,2,2-trifluoroacetyl)pyrrolidin-3-yl)methyl)-2,5,7-triazaspiro[3.4]oct-5-ene-2-carboxylate]	21	> 10
O=C(C1CC1)N1CC[C@@H](CN2C(=O)C3(CCCC3)N=C2c2ccc(-c3ccnc(N4CCNCC4)c3)cc2)C1 [compound 828, (R)-3-((1-(cyclopropanecarbonyl)pyrrolidin-3-yl)methyl)-2-(4-(2-(piperazin-1-yl)pyridin-4-yl)phenyl)-1,3-diazaspiro[4.4]non-1-en-4-one]	4	> 10
CCn1cc2cc(-c3ccc(C4=NC5(CC5)C(=O)N4CC4CN(C(=O)C5CC5)C4)cc3)ccc2n1 [compound 506, 6-{[1-(Cyclopropylcarbonyl)azetidin-3-yl]methyl}-5-[4-(2-ethyl-2H-indazol-5-yl)phenyl]-4,6-diazaspiro[2.4]hept-4-en-7-one]	61	3.39
Cn1nccc1-c1ccc(-c2ccc(C3=NC4(CC4)C(=O)N3CC3CN(C(=O)C4CC4)C3)cc2)cc1 [compound 514, 6-{[1-(Cyclopropylcarbonyl)azetidin-3-yl]methyl}-5-[4′-(1-methyl-1H-pyrazol-5-yl)biphenyl-4-yl]-4,6-diazaspiro[2.4]hept-4-en-7-one]	56	7.41
Cc1cc2cc(-c3ccc(C4=NC5(CCN(C(=O)C6CC6)CC5)C(=O)N4C[C@@H]4CCN(C(=O)C5CC5)C4)cc3)ccc2o1 [compound 171, 8-(Cyclopropylcarbonyl)-3-{[(3R)-1-(cyclopropylcarbonyl)pyrrolidin-3-yl]methyl}-2-[4-(2-methyl-1-benzofuran-5-yl)phenyl]-1,3,8-triazaspiro[4.5]dec-1-en-4-one]	107	0.214
Cc1cc2cc(-c3ccc(C4=NC5(CCN(C(C)C)CC5)C(=O)N4C[C@@H]4CCN(C(=O)C5CC5)C4)cc3)ccc2o1 [compound 186, 3-{[(3R)-1-(Cyclopropylcarbonyl)pyrrolidin-3-yl]methyl}-2-[4-(2-methyl-1-benzofuran-5-yl)phenyl]-8-(1-methylethyl)-1,3,8-triazaspiro[4.5]dec-1-en-4-one]	80.4	1.55
CC(O)C(=O)N1CC[C@@H](CN2C(=O)C3(CCOC3)N=C2c2ccc(-c3ccc(-c4cnn(C)c4)cc3)cc2)C1 (stereo partly drawn) [compound 677, 3-{[(3R)-1-(2-Hydroxypropanoyl)pyrrolidin-3-yl]methyl}-2-[4′-(1-methyl-1H-pyrazol-4-yl)biphenyl-4-yl]-7-oxa-1,3-diazaspiro[4.4]non-1-en-4-one]	63	~7.08
N#Cc1ccc(-c2ccc(C3=NC4(CC4)C(=O)N3CC3CCN(C(=O)C4CC4)CC3)cc2)cc1 [compound 7, 4′-(6-{[1-(Cyclopropylcarbonyl)piperidin-4-yl]methyl}-7-oxo-4,6-diazaspiro[2.4]hept-4-en-5-yl)biphenyl-4-carbonitrile]	33.7	
CC(O)C(=O)N1CC(CN2C(=O)C3(CCOCC3)N=C2c2ccc(-c3ccc4c(cnn4C)c3)cc2)C1 (centres unmarked) [compound 707, 3-{[1-(2-Hydroxypropanoyl)azetidin-3-yl]methyl}-2-[4-(1-methyl-1H-indazol-5-yl)phenyl]-8-oxa-1,3-diazaspiro[4.5]dec-1-en-4-one]	55	6.46
Cn1ncc2cc(-c3ccc(C4=NC5(CCOCC5)C(=O)N4CC4CN(S(C)(=O)=O)C4)cc3)ccc21 [compound 902, 2-(4-(1-methyl-1H-indazol-5-yl)phenyl)-3-((1-(methylsulfonyl)azetidin-3-yl)methyl)-8-oxa-1,3-diazaspiro[4.5]dec-1-en-4-one]	6	> 10
O=C(C1CC1)N1CC(CN2C(=O)C3(CCNCC3)N=C2c2ccc(-c3ccc4cnccc4c3)cc2)C1 [compound 132, 3-{[1-(Cyclopropylcarbonyl)azetidin-3-yl]methyl}-2-(4-isoquinolin-6-ylphenyl)-1,3,8-triazaspiro[4.5]dec-1-en-4-one]	83.7	1.7
O=C(C1CC1)N1CC(CN2C(=O)C3(CC3)N=C2c2ccc(-c3ccc4nccnc4c3)cc2)C1 [compound 481, 6-{[1-(Cyclopropylcarbonyl)azetidin-3-yl]methyl}-5-(4-quinoxalin-6-ylphenyl)-4,6-diazaspiro[2.4]hept-4-en-7-one]	68	2.19
Cn1ncc2ccc(-c3ccc(C4=NC5(CC5)C(=O)N4CC4CCN(C(=O)C5CC5)CC4)cc3)cc21 [compound 24, 6-{[1-(Cyclopropylcarbonyl)piperidin-4-yl]methyl}-5-[4-(1-methyl-1H-indazol-6-yl)phenyl]-4,6-diazaspiro[2.4]hept-4-en-7-one]	76.4	1.86
COC(=O)N1CC[C@@H](CN2C(=O)C3(CN(C(=O)OC)C3)N=C2c2ccc(-c3ccc4occc4c3)cc2)C1 [compound 931, (S)-methyl 6-(4-(benzofuran-5-yl)phenyl)-7-((1-(methoxycarbonyl)pyrrolidin-3-yl)methyl)-8-oxo-2,5,7-triazaspiro[3.4]oct-5-ene-2-carboxylate]	31	> 10
Cn1cc(-c2ccc(-c3ccc(C4=NC5(CCOC5)C(=O)N4CC4CN(C(=O)N5CCCC5)C4)cc3)cc2)cn1 (centres unmarked) [compound 713, 2-[4′-(1-Methyl-1H-pyrazol-4-yl)biphenyl-4-yl]-3-{[1-(pyrrolidin-1-ylcarbonyl)azetidin-3-yl]methyl}-7-oxa-1,3-diazaspiro[4.4]non-1-en-4-one]	59	~6.76
CN(C)CC(=O)N1CCC2(CC1)N=C(c1ccc(-c3ccc4c(cnn4C)c3)cc1)N(CC1CN(C(=O)C3CC3)C1)C2=O [compound 136, 3-{[1-(Cyclopropylcarbonyl)azetidin-3-yl]methyl}-8-(N,N-dimethylglycyl)-2-[4-(1-methyl-1H-indazol-5-yl)phenyl]-1,3,8-triazaspiro[4.5]dec-1-en-4-one]	77.7	2.95
Cc1cc(C2=NC3(CC3)C(=O)N2CC2CN(C(=O)C3CC3)C2)ccc1-c1ccc2[nH]ncc2c1 [compound 448, 6-{[1-(Cyclopropylcarbonyl)azetidin-3-yl]methyl}-5-[4-(1H-indazol-5-yl)-3-methylphenyl]-4,6-diazaspiro[2.4]hept-4-en-7-one]	50	8.51
O=C(c1nccs1)N1CC(CN2C(=O)C3(CCOCC3)N=C2c2ccc(-c3ccc4cccnc4c3)cc2)C1 [compound 947, 2-(4-(quinolin-7-yl)phenyl)-3-((1-(thiazole-2-carbonyl)azetidin-3-yl)methyl)-8-oxa-1,3-diazaspiro[4.5]dec-1-ene-4-one]	-14	> 10
